Reference: BindingDB's records for doi:10.7270/Q2057DDB (Nmmlsc, 2011)

Molecular target: T1, Vacuolar aminopeptidase 1 (Saccharomyces cerevisiae (strain ATCC 204508 / S288c), UniProt P14904)
T1 sequence (P14904 whole entry): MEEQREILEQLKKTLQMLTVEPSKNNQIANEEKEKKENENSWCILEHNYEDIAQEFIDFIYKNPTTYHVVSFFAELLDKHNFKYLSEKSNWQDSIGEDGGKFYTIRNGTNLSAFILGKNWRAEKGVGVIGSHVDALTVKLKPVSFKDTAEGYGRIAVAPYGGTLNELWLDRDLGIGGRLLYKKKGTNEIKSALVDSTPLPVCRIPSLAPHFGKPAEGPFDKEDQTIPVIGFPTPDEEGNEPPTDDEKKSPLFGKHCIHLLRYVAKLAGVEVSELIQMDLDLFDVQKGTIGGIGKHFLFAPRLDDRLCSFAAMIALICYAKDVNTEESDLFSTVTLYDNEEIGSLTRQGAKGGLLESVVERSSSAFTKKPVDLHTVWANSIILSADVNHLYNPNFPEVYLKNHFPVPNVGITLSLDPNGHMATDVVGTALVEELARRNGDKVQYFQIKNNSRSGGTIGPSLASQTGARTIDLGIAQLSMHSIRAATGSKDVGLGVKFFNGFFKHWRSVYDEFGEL
Experiment: LAP4-GFP modulation potency, analog picks, SAR follow-up, cell-based, cherry pick 3, flow cytometry (AID 488823)

[1] = inactive by the depositor's call

SMILES | EC50 [1] [µM] | EC50 [µM]
COc1cccc2c(Cl)c(CCCl)c(C)nc12 [MLS000720591] | 86.4 | –
CCC(C)Nc1nc(N)c([N+](=O)[O-])c(Nc2ccccc2OC)n1 (stereo not drawn) [SMR000434817] | 35.9 | –
CCc1sc(C(=O)Nc2nc(-c3ccccn3)cs2)cc1C [SMR001314827] | 105 | –
CCC(C)Nc1nc(N)c([N+](=O)[O-])c(Nc2cc(OC)ccc2OC)n1 (stereo not drawn) [N2-butan-2-yl-N4-(2,5-dimethoxyphenyl)-5-nitro-pyrimidine-2,4,6-triamine] | 37.3 | –
Oc1ccc(Cl)c2cccnc12 [MLS002695956] | 208 | –
NC(=O)c1ccnc2c(O)cccc12 [8-hydroxyquinoline-4-carboxamide;2,2,2-trifluoroacetic acid] | – | 35.4
CCOC(=O)CS(=O)(=O)c1nc(-c2ccccc2)cc(C(F)(F)F)n1 [2-[4-phenyl-6-(trifluoromethyl)pyrimidin-2-yl]sulfonylacetic acid ethyl ester] | 41.2 | –
Cn1cccc1C(=O)Nc1nc(-c2ccccn2)cs1 [SMR000064459] | 79.6 | –
